Entries after “also recorded” stand apart in the source; their conditions may differ.
Tests used:
[1] = test system: Carrageenan-induced hind paw edema; assay: Rat paw edema study with LCPUFA-containing diets; type: in vivo, Sprague Dawley rats; conditions: diets fed 4 weeks, 1% carrageenan, 3 hours post-injection, Day 28
Experimental: Adult, male, Sprague Dawley rats (n=10/treatment group) were fed modified AIN-76 diets formulated to include 1.2% DHA, 1.2% DHA+0.44% DPAn-6, or 1.2% DHA+0.46% arachidonic acid (ARA) for 4 weeks. Carrageenan (1%) was used to induce hind paw edema on Day 14 (left paw) and Day 28 (right paw) of feeding. Edema was measured plethysmographically using water displacement 3 hours post-injection. Similar results were obtained on day 14. *p≦0.05.

Soybean 15-lipoxygenase = molecular target: T1, Soybean 15-lipoxygenase (Glycine max, UniProt P08170); assay: 15-lipoxygenase reaction with LCPUFA substrates; type: biochemical; conditions: 100 μM fatty acid, 4 μg/ml enzyme, 0.05M sodium borate buffer pH 9.0, 0° C., absorbance at 238 nm
T1 construct: purchased Sigma-Aldrich
T1 sequence (P08170 1-839): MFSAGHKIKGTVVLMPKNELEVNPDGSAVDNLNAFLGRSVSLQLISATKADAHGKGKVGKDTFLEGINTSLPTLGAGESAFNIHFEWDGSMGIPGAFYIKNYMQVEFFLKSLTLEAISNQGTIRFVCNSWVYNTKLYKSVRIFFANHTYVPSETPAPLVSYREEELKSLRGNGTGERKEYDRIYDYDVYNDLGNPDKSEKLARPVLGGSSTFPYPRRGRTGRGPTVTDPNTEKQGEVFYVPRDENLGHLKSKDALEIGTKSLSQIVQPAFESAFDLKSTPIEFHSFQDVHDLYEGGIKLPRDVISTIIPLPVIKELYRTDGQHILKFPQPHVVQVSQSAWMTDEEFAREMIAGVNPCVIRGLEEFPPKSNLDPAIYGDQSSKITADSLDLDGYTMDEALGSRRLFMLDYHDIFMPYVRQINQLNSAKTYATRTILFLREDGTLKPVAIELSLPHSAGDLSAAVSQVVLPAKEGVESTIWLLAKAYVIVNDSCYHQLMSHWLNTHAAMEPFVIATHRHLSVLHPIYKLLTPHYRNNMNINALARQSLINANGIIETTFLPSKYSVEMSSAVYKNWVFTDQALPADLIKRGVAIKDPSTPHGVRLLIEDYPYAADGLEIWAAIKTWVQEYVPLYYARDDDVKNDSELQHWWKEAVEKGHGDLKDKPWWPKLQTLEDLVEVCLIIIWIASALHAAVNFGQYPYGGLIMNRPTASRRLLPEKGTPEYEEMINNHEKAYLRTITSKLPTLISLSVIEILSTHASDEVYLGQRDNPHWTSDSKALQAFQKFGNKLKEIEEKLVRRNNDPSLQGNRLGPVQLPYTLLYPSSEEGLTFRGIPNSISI
Experimental: Soybean 15-lipoxygenase (Sigma-Aldrich, St. Louis, Mo.) at a final concentration of 4 μg/ml was mixed into 100 μM solutions of DHA, DPAn-6, or DPAn-3 (NuChek Prep, Elysian, Minn.) in 0.05M sodium borate buffer, pH 9.0, and the reaction mixtures were incubated at 0° C. Appearance of the mono-hydroxy conjugated diene derivatives of the fatty acids was monitored through absorbance at 238 nm. Conjugated diene products were quantified using an extinction coefficient of 28,000 M^−1cm^−1 (Shimizu et al; Methods in Enzymology, 1990 Vol 187, 296-306). As shown in Example. 1, 100% of the DPAn-6 was efficiently converted to its conjugated diene derivative under these conditions, whereas about 85% of DPAn-3 and 50% of DHA were converted to their respective conjugated diene (mono-hydroxy) derivative by the 15-lipoxygenase. No appreciable accumulation of the dihydroxy derivatives occurred under these reaction conditions.

[2] = test system: inflammatory cytokine production; assay: Consumption of LCPUFA oils: inflammatory cytokine production; type: in vivo; conditions: consumption of the oil; DHA dose approximately three times higher in DHA alone than in the DHA+DPAn-6 oil
[3] = test system: Inflammatory eicosanoid secretion; assay: Consumption of LCPUFA oils: inflammatory eicosanoid secretion; type: in vivo; conditions: compared to DHA alone
[4] = test system: macrophage chemotactic protein-1 (MCP-1); assay: Mouse dorsal air pouch model: MCP-1 in exudates; type: in vivo, C57/B16 mice; conditions: 100 ng docosanoid intra-pouch, 100 ng TNFα, 4 hours after TNFα, ELISA
Excerpt: (§1) Pure 17R-hydroxy DHA (17R-HDHA) was purchased from Caymen Chemicals (Ann Arbor, Mich.). Docosanoids 17-hydroxy-DPAn-6 (17-HDPAn-6) and 10,17-dihydroxyDPAn-6 (10,17-HDPAn-6) were synthesized biogenically from DPAn-6 (NuChek Prep, Elysian, Minn.) using soybean 15-lipoxygenase (Sigma-Aldrich) and purified by HPLC as described in Example 2. Organic solvents were evaporated and the compounds were re-dissolved in phosphate buffered saline (PBS), filter sterilized and concentrations were adjusted to 1000 ng/ml using molar extinction coefficients of 28,000 and 40,000 M^−1cm^−1 for the mono- and dihydroxy docosanoids, respectively. Female C57/B16 mice (n=10 mice per group) were injected with sterile air subcutaneously in the back to initiate dorsal air pouches. Six days later, 0.9 ml sterile PBS followed by 100 ng docosanoid in 0.1 ml PBS or PBS alone were administered by intra-pouch injection. This injection was followed within 5 min by intra-pouch injection of 100 ng of mouse recombinant TNFα (Peprotech, Inc, NJ, USA) in 0.1 ml PBS. Control animals received no TNFα. As a positive control, 2 mg/kg indomethacin (Calbiochem, San Diego, Calif.) was administered intraperitoneally 30 min prior to administration of TNFα. Four hours after TNFα administration, air pouch exudates were removed and cells were stained with Turk's solution and counted. […]

IL-1β = assay: Mouse dorsal air pouch model: IL-1β in exudates; type: in vivo, C57/B16 mice; conditions: 100 ng docosanoid intra-pouch, 100 ng TNFα, 4 hours after TNFα, ELISA
Excerpt: as §1

[5] = test system: total cell migration into air pouch exudates; assay: Mouse dorsal air pouch model: total cell migration; type: in vivo, C57/B16 mice; conditions: 100 ng docosanoid intra-pouch, 100 ng TNFα, 4 hours after TNFα
Excerpt: as §1

[6] = test system: human T lymphocytes stimulated with anti-CD3/anti-CD28 antibodies; assay: TNFα secretion by human T lymphocytes; type: cell-based; conditions: 6 hrs pretreatment, 41 hrs on anti-CD3/anti-CD28 coated wells, ELISA; difference at 10 nM p=0.037
Experimental: FIG. 22A: Effect of Docosanoids on TNFα Secretion by Human T Lymphocytes. The assay was performed essentially as described in Ariel et al, 2005. Briefly, human peripheral blood mononuclear cells were isolated from venous blood by Ficoll-Paque™ Plus (Amersham biosciences) gradient. T lymphocytes were isolated using a human T cell enrichment column (R&D Systems) per manufacturer's instructions. Purified T cells were treated with 10,17-dihydroxy DPAn-6 or 10,17-dihydroxy DHA or vehicle (0.05% ethanol) in RPMI-1640 media containing 10% heat inactivated fetal bovine serum for 6 hrs at 37° C. Lymphocytes (200,000 cells in 200 μl media per well) were then transferred to 96-well plates coated with both anti-CD3 antibody and anti-CD28 antibody (100 μl of 2 μg/ml of each antibody overnight to coat wells) and incubated for 41 hrs. TNFα concentrations were determined in cell supernatants by ELISA (R&D Systems). Group means±stdev (n=4) were compared by Student's t test. *p<0.05 and **p<0.01 compared to control; # indicates statistical difference (p=0.037) between the groups treated with 10,17-dihydroxy DPAn-6 and 10,17-dihydroxy DHA at the 10 nM concentrations.

Compound | converted to conjugated diene (mono-hydroxy) derivative by the 15-lipoxygenase (Soybean 15-lipoxygenase) | secretion of MCP-1 in air pouch exudates [4] | secretion of IL-1β in air pouch exudates (IL-1β) | total number of cells in the air pouch (cell infiltration) [5] | also measured
CCCCC/C=C\C/C=C\C/C=C\C/C=C\CCCC(=O)O [ARA, arachidonic acid (C20:4n-6)] |  |  |  |  | reduction in edema volume [1]: reversed the anti-inflammatory activity of DHA
CC/C=C\C/C=C\C/C=C\C/C=C\C/C=C\CCCCCC(=O)O [DPAn-3, docosapentaenoic acid (C22:5n-3)] | about 85% |  |  |  | 
CC/C=C\C/C=C\C/C=C\C/C=C\C/C=C\C/C=C\CCC(=O)O [DHA, docosahexaenoic acid (C22:6n-3), reference compound] | ~50% |  |  |  | reduction in inflammatory cytokine production [2]: 13-29%
docosapentaenoic acid (C22:5n-6) [DPAn-6] | 100% |  |  |  | Inflammatory eicosanoid secretion [3]: significantly reduced
CCCCCC(O)/C=C/C=C\C/C=C\C/C=C\C/C=C\CCC(=O)O (stereo not shown) [17-hydroxy DPAn-6] |  | significant reductions; also recorded: larger inhibition of MCP-1 secretion than indomethacin | significant reductions | significant reductions; also recorded: more potent than both 17R-hydroxy DHA and indomethacin | 
10,17-dihydroxy DPAn-6 |  | significant reductions; also recorded: larger inhibition of MCP-1 secretion than indomethacin | significant reductions; also recorded: significantly larger than with that produced by either the DHA oxylipin derivative or indomethacin | significant reductions | reducing TNFα secretion by T lymphocytes [6]: more potent than the DHA analog (10,17,dihydroxy DHA)
